Measured values taken from patent US20150105252A1, “SUBSTITUTED PYRAZOLES AS HERBICIDES” (E I DU PONT DE NEMOURS AND COMPANY, priority 2013, published 2015).

Experiments:
wheat [1] = experiment: Test A postemergence; assay type: in vivo, Triticum aestivum
Outline: (§1)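 Growth medium: loam soil blended with sand. Preemergence treatment used a directed soil spray right after planting; postemergence treatment targeted seedlings at one to two leaves (2–10 cm height). Response was judged by eye relative to untreated plants about 10 days later on a 0–100 control scale.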

crabgrass, large = experiment: Test A preemergence; assay type: in vivo, Digitaria sanguinalis; conditions: preemergence
Outline: as §1

waterhemp = experiment: Test C preemergence; assay type: in vivo, Amaranthus rudis; conditions: for Plant response rating (scale of 0 to 100), Waterhemp: Preemergence, 250 g ai/ha
Outline: (§2)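 Seeds were sown in a loam soil–sand blend and sprayed preemergence with compounds formulated in a non-phytotoxic solvent mixture containing surfactant. Postemergence plants, grown in peat/vermiculite medium to 2–18 cm (1- to 4-leaf stage), received the same formulation. After 13 to 15 days in a greenhouse, injury was rated visually against controls (0 = no effect, 100 = complete control).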

oilseed rape = experiment: Test C postemergence; assay type: in vivo, Brassica napus; conditions: for Plant response rating (scale of 0 to 100 where 0 is no effect and 100 is complete control), Oilseed Rape: Postemergence, 31 g ai/ha, visually evaluated after 13 to 15 days; for Oilseed Rape plant response rating / Plant response rating, Oilseed Rape: postemergence; for Oilseed Rape plant response rating: 62 g ai/ha, scale 0 to 100
Outline: as §2

blackgrass = experiment: Test C postemergence; assay type: in vivo, Alopecurus myosuroides; conditions: for Plant response rating (scale of 0 to 100 where 0 is no effect and 100 is complete control), Blackgrass: Postemergence, 31 g ai/ha, visually evaluated after 13 to 15 days; for Blackgrass plant response rating / Plant response rating, Blackgrass: postemergence; for Blackgrass plant response rating: 62 g ai/ha, scale 0 to 100
Outline: as §2

velvetleaf [2] = experiment: Test C postemergence; assay type: in vivo, Abutilon theophrasti; conditions: for Plant response rating (scale of 0 to 100 where 0 is no effect and 100 is complete control), Velvetleaf: Postemergence, 31 g ai/ha, visually evaluated after 13 to 15 days; for Velvetleaf plant response rating / Plant response rating, Velvetleaf: postemergence; for Velvetleaf plant response rating: 62 g ai/ha, scale 0 to 100
Outline: as §2

barnyardgrass = experiment: Test C postemergence; assay type: in vivo, Echinochloa crus-galli; conditions: for Plant response rating (scale of 0 to 100 where 0 is no effect and 100 is complete control), Barnyardgrass: Postemergence, 31 g ai/ha, visually evaluated after 13 to 15 days; for Barnyardgrass plant response rating / Plant response rating, Barnyardgrass: postemergence; for Barnyardgrass plant response rating: 62 g ai/ha, scale 0 to 100
Outline: as §2

corn = experiment: Test C preemergence; assay type: in vivo, Zea mays; conditions: for Plant response rating (scale of 0 to 100), Corn: Preemergence, 250 g ai/ha
Outline: as §2

soybean = experiment: Test C postemergence; assay type: in vivo, Glycine max; conditions: for Plant response rating (scale of 0 to 100 where 0 is no effect and 100 is complete control), Soybean: Postemergence, 31 g ai/ha, visually evaluated after 13 to 15 days; for Soybean plant response rating / Plant response rating, Soybean: postemergence; for Soybean plant response rating: 62 g ai/ha, scale 0 to 100
Outline: as §2

kochia = experiment: Test C postemergence; assay type: in vivo, Kochia scoparia; conditions: for Plant response rating (scale of 0 to 100 where 0 is no effect and 100 is complete control), Kochia: Postemergence, 31 g ai/ha, visually evaluated after 13 to 15 days; for Kochia plant response rating / Plant response rating, Kochia: postemergence; for Kochia plant response rating: 62 g ai/ha, scale 0 to 100
Outline: as §2

nutsedge, yellow = experiment: Test C preemergence; assay type: in vivo, Cyperus esculentus; conditions: for Plant response rating (scale of 0 to 100), Nutsedge, Yellow: Preemergence, 250 g ai/ha; for Nutsedge, Yellow plant response rating: scale 0 to 100 (0 no effect, 100 complete control)
Outline: as §2

wheat [3] = experiment: Test A preemergence; assay type: in vivo, Triticum aestivum; conditions: preemergence
Outline: as §1

lambsquarters = experiment: Test C preemergence; assay type: in vivo, Chenopodium album; conditions: for Plant response rating (scale of 0 to 100), Lambsquarters: Preemergence, 250 g ai/ha
Outline: as §2

velvetleaf [4] = experiment: Test C preemergence; assay type: in vivo, Abutilon theophrasti; conditions: for Plant response rating (scale of 0 to 100), Velvetleaf: Preemergence, 250 g ai/ha
Outline: as §2

[5] = postemergence, 125 g ai/ha, about 10 days, visual rating on 0 to 100 scale (0 no effect, 100 complete control)
[6] = 125 g ai/ha, visual injury, 0 to 100 scale, approx. 10 days
[7] = 500 g ai/ha, visual injury after approx. 10 days, 0 to 100 scale (0 no effect, 100 complete control)
[8] = preemergence, 31 g ai/ha, visual rating, scale 0 to 100 (0 no effect, 100 complete control), 13 to 15 days
[9] = preemergence, 62 g ai/ha, scale 0 to 100 (0 no effect, 100 complete control), 13 to 15 days
[10] = preemergence, 125 g ai/ha, 13 to 15 days, scale 0 to 100, 0 = no effect, 100 = complete control
[11] = 250 g ai/ha, scale 0 to 100 (0 no effect, 100 complete control)
[12] = 125 g ai/ha, scale 0 to 100, 0 no effect, 100 complete control
[13] = preemergence, 31 g ai/ha, visual rating, 13 to 15 days
[14] = preemergence, 62 g ai/ha, 13 to 15 days
[15] = preemergence, 125 g ai/ha, scale 0 to 100, 0 is no effect, 100 is complete control

## CCONC(=O)c1cc(CC)n(Cc2ccnc(OC(F)F)c2)n1 [Compound 131]
Wheat [1]; Postemergence, 500 g ai/ha, 0 to 100 scale (0 no effect, 100 complete control)
  Wheat plant response rating: 90
Wheat [1]; [5]
  Wheat plant response rating: 80
crabgrass, large; [6]
  Crabgrass, Large plant response rating: 100
crabgrass, large; [7]
  Crabgrass, Large plant response rating: 100
waterhemp
  Plant response rating (scale of 0 to 100), Waterhemp: 100
waterhemp; [8]
  Waterhemp plant response rating: 100
waterhemp; [9]
  Waterhemp plant response rating: 100
waterhemp; [10]
  Plant response rating, Waterhemp: 100
Oilseed rape
  Plant response rating (scale of 0 to 100 where 0 is no effect and 100 is complete control), Oilseed Rape: 30
  Oilseed Rape plant response rating: 35
Oilseed rape; [11]
  Plant response rating, Oilseed Rape: 60
Oilseed rape; [12]
  Plant response rating, Oilseed Rape: 40
blackgrass
  Plant response rating (scale of 0 to 100 where 0 is no effect and 100 is complete control), Blackgrass: 5
  Blackgrass plant response rating: 5
blackgrass; [11]
  Plant response rating, Blackgrass: 20
blackgrass; [12]
  Plant response rating, Blackgrass: 10
Velvetleaf [2]
  Plant response rating (scale of 0 to 100 where 0 is no effect and 100 is complete control), Velvetleaf: 5
  Velvetleaf plant response rating: 25
Velvetleaf [2]; [11]
  Plant response rating, Velvetleaf: 55
Velvetleaf [2]; [12]
  Plant response rating, Velvetleaf: 35
barnyardgrass
  Plant response rating (scale of 0 to 100 where 0 is no effect and 100 is complete control), Barnyardgrass: 5
  Barnyardgrass plant response rating: 5
barnyardgrass; [11]
  Plant response rating, Barnyardgrass: 45
barnyardgrass; [12]
  Plant response rating, Barnyardgrass: 10
corn
  Plant response rating (scale of 0 to 100), Corn: 98
corn; [8]
  Corn plant response rating: 40
corn; [9]
  Corn plant response rating: 90
corn; [10]
  Plant response rating, Corn: 95
soybean
  Plant response rating (scale of 0 to 100 where 0 is no effect and 100 is complete control), Soybean: 20
  Soybean plant response rating: 25
soybean; [11]
  Plant response rating, Soybean: 80
soybean; [12]
  Plant response rating, Soybean: 35
kochia
  Plant response rating (scale of 0 to 100 where 0 is no effect and 100 is complete control), Kochia: 40
  Kochia plant response rating: 70
kochia; [11]
  Plant response rating, Kochia: 75
kochia; [12]
  Plant response rating, Kochia: 70
nutsedge, yellow
  Plant response rating (scale of 0 to 100), Nutsedge, Yellow: 90
nutsedge, yellow; [13]
  Nutsedge, Yellow plant response rating: 45
nutsedge, yellow; [14]
  Nutsedge, Yellow plant response rating: 50
nutsedge, yellow; [10]
  Plant response rating, Nutsedge, Yellow: 95
Wheat [3]; [6]
  Wheat plant response rating: 90
Wheat [3]; [7]
  Wheat plant response rating: 100
lambsquarters
  Plant response rating (scale of 0 to 100), Lambsquarters: 100
lambsquarters; [8]
  Lambsquarters plant response rating: 98
lambsquarters; [9]
  Lambsquarters plant response rating: 100
lambsquarters; [10]
  Plant response rating, Lambsquarters: 100
Velvetleaf [4]
  Plant response rating (scale of 0 to 100), Velvetleaf: 100
Velvetleaf [4]; [8]
  Velvetleaf plant response rating: 25
Velvetleaf [4]; [9]
  Velvetleaf plant response rating: 80
Velvetleaf [4]; [10]
  Plant response rating, Velvetleaf: 100

## CCc1cc(C(=O)NCC(F)(F)F)nn1Cc1cc(C(F)(F)F)nn1C [Compound 108, 5-ethyl-1-[[1-methyl-3-(trifluoromethyl)-1H-pyrazole-5-yl]methyl]-N-(2,2,2-trifluoroethyl)-1H-pyrazole-3-carboxamide]
Wheat [1]; Postemergence, 500 g ai/ha, visual rating after approx. 10 days, 0 to 100 scale (0 no effect, 100 complete control)
  Wheat plant response rating: 90
Wheat [1]; [5]
  Wheat plant response rating: 40
crabgrass, large; [6]
  Crabgrass, Large plant response rating: 100
crabgrass, large; [7]
  Crabgrass, Large plant response rating: 100
waterhemp
  Plant response rating (scale of 0 to 100), Waterhemp: 100
waterhemp; [8]
  Waterhemp plant response rating: 98
waterhemp; [9]
  Waterhemp plant response rating: 100
waterhemp; [15]
  Waterhemp plant response rating: 100
Oilseed rape
  Plant response rating (scale of 0 to 100 where 0 is no effect and 100 is complete control), Oilseed Rape: 50
  Oilseed Rape plant response rating: 50
Oilseed rape; [11]
  Plant response rating, Oilseed Rape: 55
Oilseed rape; [12]
  Plant response rating, Oilseed Rape: 55
blackgrass
  Plant response rating (scale of 0 to 100 where 0 is no effect and 100 is complete control), Blackgrass: 0
  Blackgrass plant response rating: 5
blackgrass; [11]
  Plant response rating, Blackgrass: 30
blackgrass; [12]
  Plant response rating, Blackgrass: 5
Velvetleaf [2]
  Plant response rating (scale of 0 to 100 where 0 is no effect and 100 is complete control), Velvetleaf: 5
  Velvetleaf plant response rating: 10
Velvetleaf [2]; [11]
  Plant response rating, Velvetleaf: 40
Velvetleaf [2]; [12]
  Plant response rating, Velvetleaf: 35
barnyardgrass
  Plant response rating (scale of 0 to 100 where 0 is no effect and 100 is complete control), Barnyardgrass: 0
  Barnyardgrass plant response rating: 0
barnyardgrass; [11]
  Plant response rating, Barnyardgrass: 35
barnyardgrass; [12]
  Plant response rating, Barnyardgrass: 5
corn
  Plant response rating (scale of 0 to 100), Corn: 95
corn; [8]
  Corn plant response rating: 5
corn; [9]
  Corn plant response rating: 30
corn; [15]
  Corn plant response rating: 95
soybean
  Plant response rating (scale of 0 to 100 where 0 is no effect and 100 is complete control), Soybean: 30
  Soybean plant response rating: 90
soybean; [11]
  Plant response rating, Soybean: 98
soybean; [12]
  Plant response rating, Soybean: 90
kochia
  Plant response rating (scale of 0 to 100 where 0 is no effect and 100 is complete control), Kochia: 40
  Kochia plant response rating: 60
kochia; [11]
  Plant response rating, Kochia: 90
kochia; [12]
  Plant response rating, Kochia: 80
nutsedge, yellow
  Plant response rating (scale of 0 to 100), Nutsedge, Yellow: 85
nutsedge, yellow; [13]
  Nutsedge, Yellow plant response rating: 5
nutsedge, yellow; [14]
  Nutsedge, Yellow plant response rating: 40
Wheat [3]; [6]
  Wheat plant response rating: 10
Wheat [3]; [7]
  Wheat plant response rating: 100
lambsquarters
  Plant response rating (scale of 0 to 100), Lambsquarters: 100
lambsquarters; [8]
  Lambsquarters plant response rating: 100
lambsquarters; [9]
  Lambsquarters plant response rating: 100
lambsquarters; [15]
  Lambsquarters plant response rating: 100
Velvetleaf [4]
  Plant response rating (scale of 0 to 100), Velvetleaf: 100
Velvetleaf [4]; [8]
  Velvetleaf plant response rating: 55
Velvetleaf [4]; [9]
  Velvetleaf plant response rating: 100
Velvetleaf [4]; [15]
  Velvetleaf plant response rating: 100
